# In US11197878B2, “Anti-inflammatory composition including novel quercetin-based compound” (AMOREPACIFIC CORPORATION, priority 2017, dated 2021):
# Tested on: skin
# Test: Test for skin accumulated stimulus, HRIPT (Human repeated insult patch tests)
# Assay type: in vivo
# Parameters: key to skin reactivity (ICDRG criteria): −: negative (no response); ±: doubtful or slight erythema, etc.; +: weak reaction (which is accompanied with no phlyctenule), erythema, papule; ++: severe reaction (which is accompanied with phlyctenule), erythema, papule, phlyctenule; +++: strong reaction, bullae reaction
# Details: for Number of examinees who exhibited ±, +, or ++ reactivity, 5th: 5th patch; for Number of examinees who exhibited ±, +, or ++ reactivity, 6th: 6th patch; for Number of examinees who exhibited ±, +, or ++ reactivity, 7th: 7th patch; for Number of examinees who exhibited ±, +, or ++ reactivity, 8th: 8th patch; for average reactivity: 9 patches over 3 weeks, 15 examinees, less than 3 is considered a stable composition; for Number of examinees who exhibited ±, +, or ++ reactivity, 9th: 9th patch; for Number of examinees who exhibited ±, +, or ++ reactivity, 1st: 1st patch; for Number of examinees who exhibited ±, +, or ++ reactivity, 2nd: 2nd patch; for Number of examinees who exhibited ±, +, or ++ reactivity, 3rd: 3rd patch; for Number of examinees who exhibited ±, +, or ++ reactivity, 4th: 4th patch
# Protocol: HRIPT (Human repeated insult patch tests) was conducted in order to identify skin accumulated stimulus of quercetin3-O-[3-O″-(E)-p-coumaroyl][β-D-glucopyranosyl-(1→3)-O-α-L-rhamnopyranosyl-(1→6)-O-β-D-glucopyranoside] and quercetin3-O-[3-O″-(E)-p-coumaroyl][α-L-rhamnopyranosyl-(1→6)-O-β-D-glucopyranoside] and to calculate the concentration range that can be used in skin. Specifically, 15 healthy adult examinees were randomly selected, and test compositions in which the compounds were respectively comprised in an amount of 0.5 wt. %, 1 wt. %, and 3 wt. % (the compositions for skin, comprising an emulsifying agent, a stabilizer, purified water, etc. in addition to the compounds) were dropped in the amount of 20 μl per chamber (IQ chamber, Epitest Ltd, Finland), and patched on the right site of the upper back of the examinees, and then, after 24 hours, the patch was replaced with a new patch. A total of 9 patches were conducted, three times a week for total 3 weeks, in such manner, the skin reactions before and after patch were examined every time, and the skin reactions until 48 hours after removing the final patch were observed, and the average reactivity was observed. The skin reaction was determined according to the criteria of International Contact Dermatitis Research Group (ICDRG). In the above table, “New Material 31” refers to quercetin3-O-[3-O″-(E)-p-coumaroyl][β-D-glucopyranosyl-(1→3)-O-α-L-rhamnopyranosyl-(1→6)-O-β-D-glucopyranoside], and “New Material 32” refers to quercetin3-O-[3-O″-(E)-p-coumaroyl][α-L-rhamnopyranosyl-(1→6)-O-β-D-glucopyranoside].
smiles,measurement,setting,value
"C[C@@H]1O[C@@H](OC[C@H]2O[C@@H](Oc3c(-c4ccc(O)c(O)c4)oc4cc(O)cc(O)c4c3=O)[C@H](O)[C@@H](OC(=O)/C=C/c3ccc(O)cc3)[C@@H]2O)[C@H](O)[C@H](O)[C@H]1O [New Material 32, quercetin3-O-[3-O″-(E)-p-coumaroyl][α-L-rhamnopyranosyl-(1→6)-O-β-D-glucopyranoside]]","Number of examinees who exhibited ±, +, or ++ reactivity, 5th","1 wt. %, line 1 of 3 (±)",0 number
same,"Number of examinees who exhibited ±, +, or ++ reactivity, 5th","1 wt. %, line 2 of 3 (+)",0 number
same,"Number of examinees who exhibited ±, +, or ++ reactivity, 5th","1 wt. %, line 3 of 3 (++)",0 number
same,"Number of examinees who exhibited ±, +, or ++ reactivity, 6th","1 wt. %, line 1 of 3 (±)",0 number
same,"Number of examinees who exhibited ±, +, or ++ reactivity, 6th","1 wt. %, line 2 of 3 (+)",0 number
same,"Number of examinees who exhibited ±, +, or ++ reactivity, 6th","1 wt. %, line 3 of 3 (++)",0 number
same,"Number of examinees who exhibited ±, +, or ++ reactivity, 7th","1 wt. %, line 1 of 3 (±)",0 number
same,"Number of examinees who exhibited ±, +, or ++ reactivity, 7th","1 wt. %, line 2 of 3 (+)",0 number
same,"Number of examinees who exhibited ±, +, or ++ reactivity, 7th","1 wt. %, line 3 of 3 (++)",0 number
same,"Number of examinees who exhibited ±, +, or ++ reactivity, 8th","1 wt. %, line 1 of 3 (±)",0 number
same,"Number of examinees who exhibited ±, +, or ++ reactivity, 8th","1 wt. %, line 2 of 3 (+)",0 number
same,"Number of examinees who exhibited ±, +, or ++ reactivity, 8th","1 wt. %, line 3 of 3 (++)",0 number
same,average reactivity,1 wt. %,0
same,"Number of examinees who exhibited ±, +, or ++ reactivity, 9th","1 wt. %, line 1 of 3 (±)",0 number
same,"Number of examinees who exhibited ±, +, or ++ reactivity, 9th","1 wt. %, line 2 of 3 (+)",0 number
same,"Number of examinees who exhibited ±, +, or ++ reactivity, 9th","1 wt. %, line 3 of 3 (++)",0 number
same,"Number of examinees who exhibited ±, +, or ++ reactivity, 1st","3 wt. %, line 1 of 3 (±)",0 number
same,"Number of examinees who exhibited ±, +, or ++ reactivity, 1st","3 wt. %, line 2 of 3 (+)",0 number
same,"Number of examinees who exhibited ±, +, or ++ reactivity, 1st","3 wt. %, line 3 of 3 (++)",0 number
same,"Number of examinees who exhibited ±, +, or ++ reactivity, 2nd","3 wt. %, line 1 of 3 (±)",0 number
same,"Number of examinees who exhibited ±, +, or ++ reactivity, 2nd","3 wt. %, line 2 of 3 (+)",0 number
same,"Number of examinees who exhibited ±, +, or ++ reactivity, 2nd","3 wt. %, line 3 of 3 (++)",0 number
same,"Number of examinees who exhibited ±, +, or ++ reactivity, 3rd","3 wt. %, line 1 of 3 (±)",0 number
same,"Number of examinees who exhibited ±, +, or ++ reactivity, 3rd","3 wt. %, line 2 of 3 (+)",0 number
same,"Number of examinees who exhibited ±, +, or ++ reactivity, 3rd","3 wt. %, line 3 of 3 (++)",0 number
same,"Number of examinees who exhibited ±, +, or ++ reactivity, 4th","3 wt. %, line 1 of 3 (±)",0 number
same,"Number of examinees who exhibited ±, +, or ++ reactivity, 4th","3 wt. %, line 2 of 3 (+)",0 number
same,"Number of examinees who exhibited ±, +, or ++ reactivity, 4th","3 wt. %, line 3 of 3 (++)",0 number
same,"Number of examinees who exhibited ±, +, or ++ reactivity, 5th","3 wt. %, line 1 of 3 (±)",0 number
same,"Number of examinees who exhibited ±, +, or ++ reactivity, 5th","3 wt. %, line 2 of 3 (+)",0 number
same,"Number of examinees who exhibited ±, +, or ++ reactivity, 5th","3 wt. %, line 3 of 3 (++)",0 number
same,"Number of examinees who exhibited ±, +, or ++ reactivity, 6th","3 wt. %, line 1 of 3 (±)",0 number
same,"Number of examinees who exhibited ±, +, or ++ reactivity, 6th","3 wt. %, line 2 of 3 (+)",0 number
same,"Number of examinees who exhibited ±, +, or ++ reactivity, 6th","3 wt. %, line 3 of 3 (++)",0 number
same,"Number of examinees who exhibited ±, +, or ++ reactivity, 7th","3 wt. %, line 1 of 3 (±)",0 number
same,"Number of examinees who exhibited ±, +, or ++ reactivity, 7th","3 wt. %, line 2 of 3 (+)",0 number
same,"Number of examinees who exhibited ±, +, or ++ reactivity, 7th","3 wt. %, line 3 of 3 (++)",0 number
same,"Number of examinees who exhibited ±, +, or ++ reactivity, 8th","3 wt. %, line 1 of 3 (±)",0 number
same,"Number of examinees who exhibited ±, +, or ++ reactivity, 8th","3 wt. %, line 2 of 3 (+)",0 number
same,"Number of examinees who exhibited ±, +, or ++ reactivity, 8th","3 wt. %, line 3 of 3 (++)",0 number
same,average reactivity,3 wt. %,0
same,"Number of examinees who exhibited ±, +, or ++ reactivity, 9th","3 wt. %, line 1 of 3 (±)",0 number
same,"Number of examinees who exhibited ±, +, or ++ reactivity, 9th","3 wt. %, line 2 of 3 (+)",0 number
same,"Number of examinees who exhibited ±, +, or ++ reactivity, 9th","3 wt. %, line 3 of 3 (++)",0 number
same,skin reactivity (ICDRG criteria),"within the range of contents 0.5 wt. %, 1 wt. %, 3 wt. %",−
